We go through ten molecules from patent US20250353864A1, “INDAZOLE CONTAINING MACROCYCLES AND THEIR USE” (BLOSSOMHILL THERAPEUTICS, INC., priority 2022, published 2025).

Common to all, as to format: biochemical
One test concerns the target CLK1 (Homo sapiens (Human), UniProt P49759). The test can be described thus: Inhibition of CLK1 kinase activity evaluated at Nanosyn (ADP-Glo). The note with it: ADP-Glo luminescence. The method, boiled down:
(§1)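 Percent inhibition derived from luminescent ADP detection (ADP-Glo), normalised to DMSO-only and enzyme-free wells. Reactions ran in HEPES pH 7.5 buffer with Mg2+, Triton X-100 and BSA, 1% DMSO, ATP-initiated, for an assay-specific time.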

The target in a further test is CLK2 (Homo sapiens (Human), UniProt P49760). The test can be described thus: Inhibition of CLK2 kinase activity evaluated at Nanosyn (ADP-Glo). The note with it: ADP-Glo luminescence. The method, boiled down:
as §1
On the technique in general: ADP-Glo first removes unused ATP, then detects ADP through luciferase.

The next test deals with CLK4 (Homo sapiens (Human), UniProt Q9HAZ1). The test can be described thus: Inhibition of CLK4 kinase activity evaluated at Nanosyn (ADP-Glo). The note with it: ADP-Glo luminescence. The method, boiled down: as §1
For another test, the target named is EGFR WT (Homo sapiens (Human), UniProt P00533). Briefly: HotSpot radiometric kinase assay (Reaction Biology), EGFR WT. The following applies: 10 μM ATP. The method, boiled down:
(§2)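 Enzyme and substrate pairs were exposed to inhibitor for roughly 20 min before radiolabelled ATP (10 μM final) was introduced; the reaction proceeded 120 min at ambient temperature in pH 7.5 buffer with 1% DMSO, and phosphorylated product was captured on P81 filters for IC50 determination.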

The next test concerns the target EGFR L858R mutant (Homo sapiens (Human), UniProt P00533, L858R). The test can be described thus: HotSpot radiometric kinase assay, EGFR L858R mutant. The note with it: 10 μM ATP. In a few lines:
as §2

Test [1] addresses EGFR L858R/T790M/C797S mutant (Homo sapiens (Human), UniProt P00533, C797S/L858R/T790M). Briefly: HotSpot radiometric kinase assay, EGFR L858R/T790M/C797S mutant. The note with it: 10 μM ATP. The method, boiled down:
as §2

The target in a further test is CLK3 (Homo sapiens (Human), UniProt P49761). The test can be described thus: Inhibition of CLK3 kinase activity evaluated at Nanosyn (ADP-Glo). The following applies: ADP-Glo luminescence. The method, boiled down:
as §1

A further test addresses EGFR (D770_N771insNPG) (Homo sapiens (Human), UniProt P00533, INS770NPG). Briefly: HotSpot radiometric kinase assay, EGFR (D770_N771insNPG). The note with it: 10 μM ATP, read-out: EGFR (Δ770_N771insNPG) IC50. The method, boiled down: as §2
For a further test, the target named is EGFR Δ746-750 mutant (Homo sapiens (Human), UniProt P00533, DEL746-750). The test can be described thus: HotSpot radiometric kinase assay, EGFR Δ746-750 mutant. The following applies: 10 μM ATP. The method, boiled down:
as §2

Test [2] has as its target EGFR Δ746-750/C797S mutant (Homo sapiens (Human), UniProt P00533, C797S/DEL746-750). The test can be described thus: HotSpot radiometric kinase assay, EGFR Δ746-750/C797S mutant. The following applies: 10 μM ATP. The method, boiled down: as §2
The next test deals with EGFR L858R/T790M mutant (Homo sapiens (Human), UniProt P00533, L858R/T790M). The test can be described thus: HotSpot radiometric kinase assay, EGFR L858R/T790M mutant. The note with it: 10 μM ATP. In a few lines:
as §2

EGFR Δ746-750/C797S mutant, sequence (P00533 other isoform, or with tags, fused parts or gaps C797S/del 1-668/del 746-750 limits assumed): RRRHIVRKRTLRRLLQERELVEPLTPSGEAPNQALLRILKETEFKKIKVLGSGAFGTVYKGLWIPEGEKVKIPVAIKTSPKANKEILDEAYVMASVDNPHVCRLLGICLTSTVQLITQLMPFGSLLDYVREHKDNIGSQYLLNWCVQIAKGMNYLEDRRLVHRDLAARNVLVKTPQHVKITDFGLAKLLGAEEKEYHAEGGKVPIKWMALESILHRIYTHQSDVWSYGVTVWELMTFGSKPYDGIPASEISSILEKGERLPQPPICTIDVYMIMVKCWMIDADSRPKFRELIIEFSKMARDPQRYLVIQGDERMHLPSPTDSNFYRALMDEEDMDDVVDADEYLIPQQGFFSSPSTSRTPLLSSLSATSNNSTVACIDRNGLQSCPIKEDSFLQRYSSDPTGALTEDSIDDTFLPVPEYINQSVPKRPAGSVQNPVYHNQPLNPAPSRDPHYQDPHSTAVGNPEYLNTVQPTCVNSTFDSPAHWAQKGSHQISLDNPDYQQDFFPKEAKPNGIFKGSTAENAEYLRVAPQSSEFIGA
EGFR L858R/T790M/C797S mutant, sequence (P00533 25-1210 T790M/C797S/L858R): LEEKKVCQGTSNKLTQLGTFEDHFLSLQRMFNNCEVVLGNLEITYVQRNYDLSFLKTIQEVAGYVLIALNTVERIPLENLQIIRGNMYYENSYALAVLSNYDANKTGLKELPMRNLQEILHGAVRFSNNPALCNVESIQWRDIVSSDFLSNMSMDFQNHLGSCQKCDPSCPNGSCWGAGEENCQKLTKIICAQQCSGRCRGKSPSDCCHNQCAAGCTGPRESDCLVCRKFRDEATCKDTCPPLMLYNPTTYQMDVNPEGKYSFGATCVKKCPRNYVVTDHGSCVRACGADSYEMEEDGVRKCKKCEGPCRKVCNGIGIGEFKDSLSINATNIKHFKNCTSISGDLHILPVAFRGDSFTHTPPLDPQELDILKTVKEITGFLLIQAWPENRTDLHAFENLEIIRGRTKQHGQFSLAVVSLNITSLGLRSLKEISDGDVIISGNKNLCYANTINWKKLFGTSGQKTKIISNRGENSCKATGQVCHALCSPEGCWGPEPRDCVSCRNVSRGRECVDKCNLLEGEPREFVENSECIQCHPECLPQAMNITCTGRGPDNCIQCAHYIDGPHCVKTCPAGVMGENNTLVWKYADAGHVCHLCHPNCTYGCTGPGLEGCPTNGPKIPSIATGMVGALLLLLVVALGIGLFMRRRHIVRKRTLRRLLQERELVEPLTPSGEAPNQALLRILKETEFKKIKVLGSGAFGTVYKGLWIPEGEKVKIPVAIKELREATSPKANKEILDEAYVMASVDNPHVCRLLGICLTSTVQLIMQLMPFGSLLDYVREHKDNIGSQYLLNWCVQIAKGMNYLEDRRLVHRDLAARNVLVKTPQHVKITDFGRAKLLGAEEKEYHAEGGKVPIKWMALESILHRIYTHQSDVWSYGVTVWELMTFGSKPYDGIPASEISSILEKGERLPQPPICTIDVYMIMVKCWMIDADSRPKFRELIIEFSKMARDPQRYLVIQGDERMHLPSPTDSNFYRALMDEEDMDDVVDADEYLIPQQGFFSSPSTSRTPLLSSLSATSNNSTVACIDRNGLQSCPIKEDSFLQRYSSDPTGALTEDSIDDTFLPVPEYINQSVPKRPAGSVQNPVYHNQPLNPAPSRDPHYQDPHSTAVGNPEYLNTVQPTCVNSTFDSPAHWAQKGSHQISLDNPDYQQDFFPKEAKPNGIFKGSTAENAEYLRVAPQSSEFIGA
CLK2, sequence (P49760 whole entry): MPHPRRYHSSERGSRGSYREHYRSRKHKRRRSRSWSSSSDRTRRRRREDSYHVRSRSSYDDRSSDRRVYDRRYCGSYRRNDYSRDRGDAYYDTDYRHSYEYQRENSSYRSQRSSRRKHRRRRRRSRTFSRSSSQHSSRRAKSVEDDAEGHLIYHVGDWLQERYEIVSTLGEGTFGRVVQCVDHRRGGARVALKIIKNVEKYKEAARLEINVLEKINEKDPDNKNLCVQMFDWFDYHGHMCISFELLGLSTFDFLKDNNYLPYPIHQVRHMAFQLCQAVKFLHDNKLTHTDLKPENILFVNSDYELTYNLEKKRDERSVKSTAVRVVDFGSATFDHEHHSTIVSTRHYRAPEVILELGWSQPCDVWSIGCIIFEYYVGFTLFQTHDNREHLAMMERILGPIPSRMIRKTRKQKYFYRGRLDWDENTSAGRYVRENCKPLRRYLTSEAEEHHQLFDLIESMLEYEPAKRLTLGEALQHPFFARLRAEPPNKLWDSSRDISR
EGFR L858R/T790M mutant, sequence (P00533 25-1210 T790M/L858R): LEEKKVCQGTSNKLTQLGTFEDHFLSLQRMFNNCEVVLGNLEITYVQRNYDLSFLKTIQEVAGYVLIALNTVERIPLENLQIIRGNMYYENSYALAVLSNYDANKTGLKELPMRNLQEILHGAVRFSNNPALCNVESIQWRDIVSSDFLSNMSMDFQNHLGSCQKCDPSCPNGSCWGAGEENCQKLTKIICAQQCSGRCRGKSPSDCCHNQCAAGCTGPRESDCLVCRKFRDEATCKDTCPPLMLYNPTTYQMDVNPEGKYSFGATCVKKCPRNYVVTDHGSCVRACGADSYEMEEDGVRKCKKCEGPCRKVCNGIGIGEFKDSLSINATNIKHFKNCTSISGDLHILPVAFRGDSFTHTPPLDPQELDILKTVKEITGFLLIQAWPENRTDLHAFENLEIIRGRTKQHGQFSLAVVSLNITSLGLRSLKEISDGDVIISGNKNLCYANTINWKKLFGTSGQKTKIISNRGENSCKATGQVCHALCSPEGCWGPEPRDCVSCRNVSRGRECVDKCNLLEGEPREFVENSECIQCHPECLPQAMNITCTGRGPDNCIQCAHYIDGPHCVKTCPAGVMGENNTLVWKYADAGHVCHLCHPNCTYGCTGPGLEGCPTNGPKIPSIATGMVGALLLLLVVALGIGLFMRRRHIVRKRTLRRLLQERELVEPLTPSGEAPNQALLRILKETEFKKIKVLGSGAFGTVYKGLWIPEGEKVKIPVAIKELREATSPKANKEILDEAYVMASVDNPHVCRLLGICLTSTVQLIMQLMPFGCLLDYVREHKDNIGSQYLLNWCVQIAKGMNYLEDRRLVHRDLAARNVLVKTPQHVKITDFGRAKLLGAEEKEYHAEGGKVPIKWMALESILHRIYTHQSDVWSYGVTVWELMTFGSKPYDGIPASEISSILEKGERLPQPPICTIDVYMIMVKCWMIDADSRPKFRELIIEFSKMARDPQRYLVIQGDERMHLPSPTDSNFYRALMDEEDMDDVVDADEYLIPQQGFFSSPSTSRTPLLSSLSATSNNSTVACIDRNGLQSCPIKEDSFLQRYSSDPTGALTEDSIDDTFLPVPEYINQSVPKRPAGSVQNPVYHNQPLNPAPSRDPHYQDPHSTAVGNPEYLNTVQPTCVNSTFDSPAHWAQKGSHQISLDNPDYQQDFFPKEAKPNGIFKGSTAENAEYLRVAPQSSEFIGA
EGFR (D770_N771insNPG), sequence (P00533 other isoform, or with tags, fused parts or gaps del 1-668/ins NPG behind 770 limits assumed): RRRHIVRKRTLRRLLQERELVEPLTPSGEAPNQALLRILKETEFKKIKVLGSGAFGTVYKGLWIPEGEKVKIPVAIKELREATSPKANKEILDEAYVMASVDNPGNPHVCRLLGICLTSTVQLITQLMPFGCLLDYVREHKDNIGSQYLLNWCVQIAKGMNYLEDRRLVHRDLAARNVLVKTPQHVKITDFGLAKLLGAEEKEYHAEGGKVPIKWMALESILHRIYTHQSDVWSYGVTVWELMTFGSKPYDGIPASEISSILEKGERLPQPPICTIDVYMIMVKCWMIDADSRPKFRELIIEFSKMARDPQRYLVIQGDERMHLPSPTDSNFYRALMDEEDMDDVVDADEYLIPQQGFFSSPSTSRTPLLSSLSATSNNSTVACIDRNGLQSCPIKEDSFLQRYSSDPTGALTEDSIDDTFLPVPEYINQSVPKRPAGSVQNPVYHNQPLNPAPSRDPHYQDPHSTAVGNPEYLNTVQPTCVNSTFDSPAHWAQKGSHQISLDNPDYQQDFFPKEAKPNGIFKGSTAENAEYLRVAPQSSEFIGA
CLK1, sequence (P49759 whole entry): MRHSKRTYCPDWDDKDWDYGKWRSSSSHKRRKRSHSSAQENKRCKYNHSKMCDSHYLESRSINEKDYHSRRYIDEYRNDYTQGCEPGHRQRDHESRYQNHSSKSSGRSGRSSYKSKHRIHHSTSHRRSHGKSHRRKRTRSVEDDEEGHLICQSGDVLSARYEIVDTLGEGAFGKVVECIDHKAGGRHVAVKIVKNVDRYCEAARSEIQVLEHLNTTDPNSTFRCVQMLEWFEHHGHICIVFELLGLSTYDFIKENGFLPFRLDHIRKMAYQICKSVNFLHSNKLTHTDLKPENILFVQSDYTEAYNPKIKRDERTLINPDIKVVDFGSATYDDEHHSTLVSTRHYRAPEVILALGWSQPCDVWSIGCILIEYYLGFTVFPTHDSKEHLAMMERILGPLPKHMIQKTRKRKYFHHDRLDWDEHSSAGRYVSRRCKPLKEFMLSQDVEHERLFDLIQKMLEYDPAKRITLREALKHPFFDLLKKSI
CLK3, sequence (P49761 whole entry): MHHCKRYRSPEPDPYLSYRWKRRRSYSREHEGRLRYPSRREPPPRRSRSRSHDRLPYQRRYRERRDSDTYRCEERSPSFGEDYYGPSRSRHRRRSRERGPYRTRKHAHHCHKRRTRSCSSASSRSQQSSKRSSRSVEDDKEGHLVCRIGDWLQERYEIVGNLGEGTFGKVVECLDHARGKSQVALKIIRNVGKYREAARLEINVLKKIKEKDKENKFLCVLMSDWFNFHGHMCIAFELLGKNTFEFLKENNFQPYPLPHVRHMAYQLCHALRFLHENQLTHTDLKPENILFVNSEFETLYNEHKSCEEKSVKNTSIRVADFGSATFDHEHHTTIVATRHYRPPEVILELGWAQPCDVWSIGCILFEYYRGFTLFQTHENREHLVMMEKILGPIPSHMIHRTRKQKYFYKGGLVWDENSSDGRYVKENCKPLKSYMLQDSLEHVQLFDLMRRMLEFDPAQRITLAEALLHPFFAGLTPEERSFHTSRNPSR

Usually IC50 stands for the concentration at which inhibition is half-maximal. Take `CCOc1nn(CCO)c2c1/C=C/c1n[nH]c3ccc(cc13)-c1cnn(C)c1O[C@@H](C)CN(CC)C2` [Example 177, 2-[(10S,17E)-16-ethoxy-12-ethyl-8,10-dimethyl-2,8,10,11,12,13-hexahydro-14H-3,5-ethenotripyrazolo[3,4-f:3′,4′-j:4″,3″-n][1,4]oxazacyclopentadecin-14-yl]ethan-1-ol]: the IC50 at CLK1 was 0.47 nM; on CLK2 it was 0.23 nM; on CLK4, 1.08 nM; on EGFR WT, 0.67 nM; on EGFR L858R mutant it was 0.38 nM; in test [1] it was 1.78 nM. Further, the 50% inhibitory concentration (IC50) at CLK3 was found to be 59.1 nM; on EGFR (D770_N771insNPG) it was 1.56 nM; against EGFR Δ746-750 mutant, 0.56 nM; in [2] it was 0.75 nM; against EGFR L858R/T790M mutant, 0.6 nM.
Regarding `CC(C)c1noc2c1/C=C/c1n[nH]c3ccc(cc13)-c1cnn(C)c1O[C@@H](C)CN(C)C2` [Example 179, (10S,17E)-8,10,12-trimethyl-16-(propan-2-yl)-2,8,10,11,12,13-hexahydro-3,5-etheno[1,2]oxazolo[5,4-f]dipyrazolo[3,4-j:4′,3′-n][1,4]oxazacyclopentadecine], the IC50 is 2.75 nM on CLK1; 9.57 nM on CLK2; 1.66 nM at CLK4; greater than 1000 nM at EGFR WT; greater than 1000 nM against EGFR L858R mutant; 507 nM in test [1]. The IC50 on CLK3 was 1000 nM; on EGFR (D770_N771insNPG), greater than 1000 nM; at EGFR Δ746-750 mutant, greater than 1000 nM; in test [2], greater than 1000 nM; at EGFR L858R/T790M mutant it was 1010 nM.
`CCOc1noc2c1/C=C/c1n[nH]c3ccc(cc13)-c1cnn(C)c1O[C@@H](C)CN(C)C2` [Example 183, (10S,17E)-16-ethoxy-8,10,12-trimethyl-2,8,10,11,12,13-hexahydro-3,5-etheno[1,2]oxazolo[5,4-f]dipyrazolo[3,4-j:4′,3′-n][1,4]oxazacyclopentadecine]: the 50% inhibitory concentration (IC50) at CLK1 was 0.82 nM; on CLK2, 0.24 nM; at CLK4, 1.83 nM; at EGFR WT, 195 nM; against EGFR L858R mutant, 61.5 nM; in test [1], 1.05 nM. The IC50 on CLK3 worked out at 155 nM; on EGFR (D770_N771insNPG), 534 nM; on EGFR Δ746-750 mutant it was 53.8 nM; in test [2] it was 17.7 nM; against EGFR L858R/T790M mutant, 0.65 nM.
With `C[C@H]1CN(C)Cc2c(c(O)nn2CCO)/C=C/c2n[nH]c3ccc(cc23)-c2cnn(C)c2O1` [Example 186, (10S,17E)-14-(2-hydroxyethyl)-8,10,12-trimethyl-2,10,11,12,13,14-hexahydro-8H-3,5-ethenotripyrazolo[3,4-f:3′,4′-j:4″,3″-n][1,4]oxazacyclopentadecin-16-ol], the IC50 on CLK1 amounted to 0.24 nM; at CLK2, 0.18 nM; on CLK4, 1 nM; on EGFR WT, 43.8 nM; against EGFR L858R mutant, 14.6 nM; in test [1], 0.46 nM. Further, the IC50 worked out at 126 nM on CLK3; 59.1 nM at EGFR (D770_N771insNPG); 12.9 nM at EGFR Δ746-750 mutant; 3.06 nM in [2]; 1.48 nM against EGFR L858R/T790M mutant.
Regarding `C[C@H]1CN(C)Cc2c(c(OC3CC(S(C)(=O)=O)C3)nn2C)/C=C/c2n[nH]c3ccc(cc23)-c2cnn(C)c2O1` (stereo partly drawn) [Example 187, (10S,17E)-16-{I3-(methanesulfonyl)cyclobutyl|oxy}-8,10,12,14-tetramethyl-2,10,11,12,13,14-hexahydro-8H-3,5-ethenotripyrazolo[3,4-f:3′,4′-j:4″,3″-n][1,4]oxazacyclopentadecine], the IC50 worked out at 0.48 nM on CLK1; 0.3 nM at CLK2; 1.35 nM at CLK4; 25.9 nM against EGFR WT; 6.88 nM on EGFR L858R mutant; 0.33 nM in [1]. The IC50 at CLK3 stood at 311 nM; at EGFR (D770_N771insNPG), 74.7 nM; at EGFR Δ746-750 mutant, 8.88 nM; in test [2], 7.84 nM; on EGFR L858R/T790M mutant it was 0.47 nM.
As to `CCOc1nn(CCO)c2c1/C=C/c1n[nH]c3cc(F)c(cc13)-c1cnn(C)c1O[C@@H]1CCCN(C2)C1` [Example 191, 2-[(10R,19E)-18-ethoxy-22-fluoro-8-methyl-2,10,11,12,13,15-hexahydro-3,5-etheno-10,14-methanotripyrazolo[3,4-h:3′,4′-l:4″,3″-p][1,6]oxazacycloheptadecin-16(8H)-yl]ethan-1-o], the IC50 on CLK1 was determined as 2.42 nM; on CLK2, 4.37 nM; on CLK4, 2.41 nM; against EGFR WT it was 19.8 nM; against EGFR L858R mutant, 5.61 nM; in [1] it was 2.63 nM. In addition, the IC50 at CLK3 was 43.4 nM; on EGFR (D770_N771insNPG) it was 102 nM; against EGFR Δ746-750 mutant it was 9.04 nM; in [2], 4.19 nM; at EGFR L858R/T790M mutant, 4.23 nM.
With `CC(C)Oc1nn(CCO)c2c1/C=C/c1n[nH]c3ccc(cc13)-c1cnn(C)c1O[C@H](C)CN(C(C)C)C2` [Example 193, 2-{(10R,17E)-8,10-dimethyl-12-(propan-2-yl)-16-[(propan-2-yl)oxy]-2,8,10,11,12,13-hexahydro-14H-3,5-ethenotripyrazolo[3,4-f:3′,4′-j:4″,3″-n][1,4]oxazacyclopentadecin-14-yl}ethan-1-ol], the IC50 at CLK1 stood at 31.8 nM; on CLK2 it was 45.4 nM; on CLK4, 21 nM; against EGFR WT, 90.1 nM; against EGFR L858R mutant it was 36.6 nM; in [1], 1.05 nM. For the same molecule, the IC50 at CLK3 is 1000 nM; at EGFR (D770_N771insNPG) it was 77.3 nM; on EGFR Δ746-750 mutant, 10.2 nM; in test [2], 5.92 nM; against EGFR L858R/T790M mutant, 2.42 nM.
On to `CC(C)Oc1nn(CCO)c2c1/C=C/c1n[nH]c3cc(F)c(cc13)-c1cnn(C)c1O[C@H](C)CN(C(C)C)C2` [Example 195, 2-{(10R,17E)-19-fluoro-8,10-dimethyl-12-(propan-2-yl)-16-[(propan-2-yl)oxy]-2,8,10,11,12,13-hexahydro-14H-3,5-ethenotripyrazolo[3,4-f:3′,4′-j:4″,3″- n][1,4]oxazacyclopentadecin-14-yl}ethan-1-ol], for which the IC50 at CLK1 worked out at 36.6 nM; at CLK2, 53.5 nM; at CLK4 it was 22.3 nM; against EGFR WT, 99.7 nM; on EGFR L858R mutant, 39.9 nM; in test [1], 3.67 nM. The IC50 was determined as 435 nM at CLK3; 156 nM on EGFR (D770_N771insNPG); 18.6 nM at EGFR Δ746-750 mutant; 8.68 nM in test [2]; 6.18 nM against EGFR L858R/T790M mutant.
Consider `CCOc1nn(CCO)c2c1/C=C/c1n[nH]c3ccc(cc13)-c1cnn(C)c1O[C@H](C)CNC2` [Example 197, 2-[(10R,17E)-16-ethoxy-8,10-dimethyl-2,8,10,11,12,13-hexahydro-14H-3,5-ethenotripyrazolo[3,4-f:3′,4′-j:4″,3″- n][1,4]oxazacyclopentadecin-14-yl]ethan-1-ol], for which the IC50 on CLK1 is 1.16 nM; at CLK2, 3.06 nM; on CLK4, 1.59 nM; against EGFR WT it was 194 nM; on EGFR L858R mutant, 95.2 nM; in [1], 2.18 nM. Moreover, the IC50 was 78.6 nM at CLK3; 217 nM at EGFR (D770_N771insNPG); 62 nM on EGFR Δ746-750 mutant; 29.8 nM in [2]; 4.58 nM on EGFR L858R/T790M mutant.
For the molecule `CCOc1nn(CCO)c2c1/C=C/c1n[nH]c3ccc(cc13)-c1cnn(C)c1OC[C@H](C)N(C1CC1)C2` [Example 198, 2-[(11S,17E)-12-cyclopropyl-16-ethoxy-8,11-dimethyl-2,8,10,11,12,13-hexahydro-14H-3,5-ethenotripyrazolo[3,4-f:3′,4′-j:4″,3″- n][1,4]oxazacyclopentadecin-14-yl]ethan-1-ol], the IC50 on CLK1 worked out at 0.76 nM; on CLK2, 1.61 nM; at CLK4 it was 1.63 nM; on EGFR WT, 36.8 nM; against EGFR L858R mutant it was 13.1 nM; in test [1], 0.26 nM. The IC50 on CLK3 is 1000 nM; at EGFR (D770_N771insNPG), 47 nM; against EGFR Δ746-750 mutant, 5.84 nM; in test [2] it was 1.96 nM; on EGFR L858R/T790M mutant, 0.89 nM.
